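Five concentrations, 48 hours, 96-well plates. GI50 = concentration required for 50% inhibition of growth. The concentration for full growth arrest is given as TGI.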
What was measured:
Assay in all cases: NCI anticancer screen, dose series, 48 h; in the data active = GI50 below about 0.43 µM; inactive = the rest
DU-145 prostate = system: DU-145 prostate
SW-620 colon = system: SW-620 colon
COLO 205 colon = system: COLO 205 colon
HOP-62 NSCLC = system: HOP-62 NSCLC
MDA-MB-435 = system: MDA-MB-435
HCC-2998 colon = system: HCC-2998 colon
HCT-116 colon = system: HCT-116 colon
MCF7 breast = system: MCF7 breast
UO-31 renal = system: UO-31 renal
SR leukemia = system: SR leukemia
SF-539 CNS = system: SF-539 CNS
UACC-62 melanoma = system: UACC-62 melanoma
HOP-92 NSCLC = system: HOP-92 NSCLC
PC-3 prostate = system: PC-3 prostate
MALME-3M melanoma = system: MALME-3M melanoma
A549 NSCLC = system: A549 NSCLC
BT-549 breast = system: BT-549 breast
K-562 leukemia = system: K-562 leukemia
NCI/ADR-RES ovarian = system: NCI/ADR-RES ovarian
SK-MEL-2 melanoma = system: SK-MEL-2 melanoma
RXF 393 renal = system: RXF 393 renal
KM12 colon = system: KM12 colon
NCI-H226 lung = system: NCI-H226 lung
SK-OV-3 ovarian = system: SK-OV-3 ovarian
OVCAR-4 ovarian = system: OVCAR-4 ovarian
NCI-H23 lung = system: NCI-H23 lung
NCI-H522 lung = system: NCI-H522 lung
T-47D breast = system: T-47D breast
M14 melanoma = system: M14 melanoma
NCI-H460 lung = system: NCI-H460 lung
SNB-75 CNS = system: SNB-75 CNS
CCRF-CEM leukemia = system: CCRF-CEM leukemia
RPMI-8226 leukemia = system: RPMI-8226 leukemia
OVCAR-8 ovarian = system: OVCAR-8 ovarian
TK-10 renal = system: TK-10 renal
HT29 colon = system: HT29 colon
SF-295 CNS = system: SF-295 CNS
CAKI-1 renal = system: CAKI-1 renal
OVCAR-5 ovarian = system: OVCAR-5 ovarian
IGROV1 ovarian = system: IGROV1 ovarian
EKVX NSCLC = system: EKVX NSCLC
SK-MEL-5 melanoma = system: SK-MEL-5 melanoma
MDA-MB-231 breast = system: MDA-MB-231 breast
UACC-257 melanoma = system: UACC-257 melanoma
SNB-19 CNS = system: SNB-19 CNS
SN12C renal = system: SN12C renal
OVCAR-3 ovarian = system: OVCAR-3 ovarian
LOX IMVI melanoma = system: LOX IMVI melanoma
ACHN renal = system: ACHN renal
HS 578T breast = system: HS 578T breast
MOLT-4 leukemia = system: MOLT-4 leukemia
786-0 renal = system: 786-0 renal
HL-60(TB) leukemia = system: HL-60(TB) leukemia
SK-MEL-28 melanoma = system: SK-MEL-28 melanoma
U251 CNS = system: U251 CNS
HCT-15 colon = system: HCT-15 colon
SF-268 CNS = system: SF-268 CNS
A498 renal = system: A498 renal

CC(O)[C@H](NC(=O)N[C@@H](CC(N)=O)c1nc(N2CCNCC2)no1)C(=O)O (stereo not given in full)
> 100 µM: TGI (DU-145 prostate) | TGI (SW-620 colon) | TGI (COLO 205 colon) | TGI (HOP-62 NSCLC) | TGI (MDA-MB-435) | TGI (HCC-2998 colon) | TGI (HCT-116 colon) | TGI (MCF7 breast) | TGI (UO-31 renal) | TGI (SR leukemia) | TGI (SF-539 CNS) | TGI (UACC-62 melanoma) | TGI (HOP-92 NSCLC) | TGI (PC-3 prostate) | TGI (MALME-3M melanoma) | TGI (A549 NSCLC) | TGI (BT-549 breast) | TGI (K-562 leukemia) | TGI (NCI/ADR-RES ovarian) | TGI (SK-MEL-2 melanoma) | TGI (RXF 393 renal) | TGI (KM12 colon) | TGI (NCI-H226 lung) | TGI (SK-OV-3 ovarian) | TGI (OVCAR-4 ovarian) | TGI (NCI-H23 lung) | TGI (NCI-H522 lung) | TGI (T-47D breast) | TGI (M14 melanoma) | TGI (NCI-H460 lung) | TGI (SNB-75 CNS) | TGI (CCRF-CEM leukemia) | TGI (RPMI-8226 leukemia) | TGI (OVCAR-8 ovarian) | TGI (TK-10 renal) | TGI (HT29 colon) | TGI (SF-295 CNS) | TGI (CAKI-1 renal) | TGI (OVCAR-5 ovarian) | TGI (IGROV1 ovarian) | TGI (EKVX NSCLC) | TGI (SK-MEL-5 melanoma) | TGI (MDA-MB-231 breast) | TGI (UACC-257 melanoma) | TGI (SNB-19 CNS) | TGI (SN12C renal) | TGI (OVCAR-3 ovarian) | TGI (LOX IMVI melanoma) | TGI (ACHN renal) | TGI (HS 578T breast) | TGI (MOLT-4 leukemia) | TGI (786-0 renal) | TGI (HL-60(TB) leukemia) | TGI (SK-MEL-28 melanoma) | TGI (U251 CNS) | TGI (HCT-15 colon) | TGI (SF-268 CNS)
inactive: GI50 (DU-145 prostate) > 100 µM | GI50 (SW-620 colon) > 100 µM | GI50 (COLO 205 colon) > 100 µM | GI50 (HOP-62 NSCLC) > 100 µM | GI50 (MDA-MB-435) > 100 µM | GI50 (HCC-2998 colon) > 100 µM | GI50 (HCT-116 colon) > 100 µM | GI50 (MCF7 breast) > 100 µM | GI50 (UO-31 renal) > 100 µM | GI50 (SR leukemia) > 100 µM | GI50 (SF-539 CNS) > 100 µM | GI50 (UACC-62 melanoma) > 100 µM | GI50 (HOP-92 NSCLC) > 100 µM | GI50 (PC-3 prostate) > 100 µM | GI50 (MALME-3M melanoma) > 100 µM | GI50 (A549 NSCLC) > 100 µM | GI50 (BT-549 breast) > 100 µM | GI50 (K-562 leukemia) > 100 µM | GI50 (NCI/ADR-RES ovarian) > 100 µM | GI50 (SK-MEL-2 melanoma) > 100 µM | GI50 (RXF 393 renal) > 100 µM | GI50 (KM12 colon) > 100 µM | GI50 (NCI-H226 lung) > 100 µM | GI50 (SK-OV-3 ovarian) > 100 µM | GI50 (OVCAR-4 ovarian) > 100 µM | GI50 (NCI-H23 lung) > 100 µM | GI50 (NCI-H522 lung) > 100 µM | GI50 (T-47D breast) > 100 µM | GI50 (M14 melanoma) > 100 µM | GI50 (NCI-H460 lung) > 100 µM | GI50 (SNB-75 CNS) > 100 µM | GI50 (CCRF-CEM leukemia) > 100 µM | GI50 (RPMI-8226 leukemia) > 100 µM | GI50 (OVCAR-8 ovarian) > 100 µM | GI50 (TK-10 renal) > 100 µM | GI50 (HT29 colon) > 100 µM | GI50 (SF-295 CNS) > 100 µM | GI50 (CAKI-1 renal) > 100 µM | GI50 (OVCAR-5 ovarian) > 100 µM | GI50 (IGROV1 ovarian) > 100 µM | GI50 (EKVX NSCLC) > 100 µM | GI50 (SK-MEL-5 melanoma) > 100 µM | GI50 (MDA-MB-231 breast) > 100 µM | GI50 (UACC-257 melanoma) > 100 µM | GI50 (SNB-19 CNS) > 100 µM | GI50 (SN12C renal) > 100 µM | GI50 (OVCAR-3 ovarian) > 100 µM | GI50 (LOX IMVI melanoma) > 100 µM | GI50 (ACHN renal) > 100 µM | GI50 (HS 578T breast) > 100 µM | GI50 (MOLT-4 leukemia) > 100 µM | GI50 (786-0 renal) > 100 µM | GI50 (HL-60(TB) leukemia) > 100 µM | GI50 (SK-MEL-28 melanoma) > 100 µM | GI50 (U251 CNS) > 100 µM | GI50 (HCT-15 colon) > 100 µM | GI50 (SF-268 CNS) > 100 µM

COc1cc(-c2nn(-c3cccc(NC(=O)CCN4CCN(c5ccccc5)CC4)c3)cc2-c2ccncc2)ccc1Cl
95.5 µM: TGI (UACC-257 melanoma)
4.23 µM: TGI (786-0 renal)
8.01 µM: TGI (UACC-62 melanoma)
18 µM: TGI (SF-295 CNS)
17.9 µM: TGI (A498 renal)
18.4 µM: TGI (SF-539 CNS)
6.85 µM: TGI (SK-MEL-2 melanoma)
7.91 µM: TGI (MDA-MB-231 breast)
9.97 µM: TGI (KM12 colon)
> 100 µM: TGI (DU-145 prostate) | TGI (SW-620 colon) | TGI (HOP-62 NSCLC) | TGI (HCC-2998 colon) | TGI (HCT-116 colon) | TGI (MCF7 breast) | TGI (PC-3 prostate) | TGI (A549 NSCLC) | TGI (BT-549 breast) | TGI (NCI/ADR-RES ovarian) | TGI (NCI-H226 lung) | TGI (SK-OV-3 ovarian) | TGI (OVCAR-4 ovarian) | TGI (NCI-H23 lung) | TGI (T-47D breast) | TGI (SNB-75 CNS) | TGI (CCRF-CEM leukemia) | TGI (OVCAR-8 ovarian) | TGI (TK-10 renal) | TGI (HT29 colon) | TGI (OVCAR-5 ovarian) | TGI (IGROV1 ovarian) | TGI (EKVX NSCLC) | TGI (SNB-19 CNS) | TGI (SN12C renal) | TGI (ACHN renal) | TGI (HS 578T breast) | TGI (MOLT-4 leukemia) | TGI (HL-60(TB) leukemia) | TGI (SK-MEL-28 melanoma) | TGI (U251 CNS) | TGI (HCT-15 colon) | TGI (SF-268 CNS)
7.01 µM: TGI (M14 melanoma)
9.69 µM: TGI (NCI-H522 lung)
19.5 µM: TGI (HOP-92 NSCLC)
48 µM: TGI (UO-31 renal)
31.3 µM: TGI (NCI-H460 lung)
5.47 µM: TGI (LOX IMVI melanoma)
9.73 µM: TGI (OVCAR-3 ovarian)
14.3 µM: TGI (MALME-3M melanoma)
13 µM: TGI (MDA-MB-435)
inactive: GI50 (DU-145 prostate) 4.35 µM | GI50 (SW-620 colon) 4.09 µM | GI50 (HOP-62 NSCLC) 4.32 µM | GI50 (MDA-MB-435) 2.57 µM | GI50 (HCC-2998 colon) 3.56 µM | GI50 (HCT-116 colon) 2.85 µM | GI50 (MCF7 breast) 2.55 µM | GI50 (UO-31 renal) 2.9 µM | GI50 (SF-539 CNS) 2.53 µM | GI50 (UACC-62 melanoma) 2.49 µM | GI50 (HOP-92 NSCLC) 2.92 µM | GI50 (PC-3 prostate) 3.1 µM | GI50 (MALME-3M melanoma) 2.73 µM | GI50 (A549 NSCLC) 4.91 µM | GI50 (BT-549 breast) 3.17 µM | GI50 (NCI/ADR-RES ovarian) 3.18 µM | GI50 (SK-MEL-2 melanoma) 2.45 µM | GI50 (RXF 393 renal) 1.91 µM | GI50 (KM12 colon) 2.45 µM | GI50 (NCI-H226 lung) 4.13 µM | GI50 (SK-OV-3 ovarian) 4.27 µM | GI50 (OVCAR-4 ovarian) 3.03 µM | GI50 (NCI-H23 lung) 3.09 µM | GI50 (NCI-H522 lung) 2.43 µM | GI50 (T-47D breast) 2.09 µM | GI50 (M14 melanoma) 2.31 µM | GI50 (NCI-H460 lung) 3.11 µM | GI50 (SNB-75 CNS) 4.13 µM | GI50 (CCRF-CEM leukemia) 3.38 µM | GI50 (OVCAR-8 ovarian) 4.5 µM | GI50 (TK-10 renal) 3.69 µM | GI50 (A498 renal) 3.29 µM | GI50 (HT29 colon) 2.66 µM | GI50 (SF-295 CNS) 2.41 µM | GI50 (OVCAR-5 ovarian) 3.15 µM | GI50 (IGROV1 ovarian) 4.12 µM | GI50 (EKVX NSCLC) 3.31 µM | GI50 (SK-MEL-5 melanoma) 2.19 µM | GI50 (MDA-MB-231 breast) 2.28 µM | GI50 (UACC-257 melanoma) 5.29 µM | GI50 (SNB-19 CNS) 4.38 µM | GI50 (SN12C renal) 3.72 µM | GI50 (OVCAR-3 ovarian) 2.68 µM | GI50 (LOX IMVI melanoma) 2.02 µM | GI50 (ACHN renal) 2.67 µM | GI50 (HS 578T breast) 4.61 µM | GI50 (MOLT-4 leukemia) 2.89 µM | GI50 (786-0 renal) 1.83 µM | GI50 (HL-60(TB) leukemia) 3.63 µM | GI50 (SK-MEL-28 melanoma) 3.19 µM | GI50 (U251 CNS) 3.13 µM | GI50 (HCT-15 colon) 2.62 µM | GI50 (SF-268 CNS) 3.56 µM
5.18 µM: TGI (RXF 393 renal)
5.36 µM: TGI (SK-MEL-5 melanoma)
